Data taken from US20260139222A1, “SYSTEMS WITH BIO-ENGINEERED ADHESIVE SILOXANE SUBSTRATE OF TUNABLE STIFFNESS AND METHODS OF USE THEREOF” (NUTECH VENTURES, priority 2022, published 2026).
“Also recorded” adds a separate entry of the source.

Legend:
HMC3 microglia [1] = assay: Morphology of HMC3 microglia on BEASTS surfaces after NAC pretreatment; format: cell-based, human; details: 0.25 mM NAC pretreatment; after 11 days; all stiffnesses
Protocol: To investigate the protective effect of NAC on stiffness-activated microglia, microglial cells were pretreated with 0.25 and 2.5 mM NAC prior to seeding. After 11 days, the morphology was ramified across all treatments with 0.25 mM NAC (FIG. 17A). ROS production was then measured. […] Next, the genotypes of untreated microglia were compared with NAC-treated microglia and an attenuation was found in each transcript. […] Additionally the MI profile correspondingly attenuated and mechanosensors; however, the M2 marker PPARG increased. To investigate the influence of NAC on caspase-1 stiffness-driven inflammation, the activity of caspase-1 was measured. The activity was reduced in 2 and 8 kPa; however, 25 kPa had increased caspase-1 activity, corroborating the findings with the loss of the CX3CR1 transcript (FIGS. 17E and 17F). […] Together, these findings indicate that pre-treatment of NAC attenuates ROS-driven dysfunction in stiffness-activated microglia. […] BV2 mouse microglia and HMC3 human cells: All cells were grown in aseptic conditions following standard cell culture protocol and stored in an incubator set at 37° C. with 5% CO2. […] Microglia were grown for 11 days and then assessed using qRT-PCR, counting, and luminescent assays.

HMC3 microglia [2] = assay: Total intracellular ROS (H2DCFDA dye) in microglia on stiffness after NAC pretreatment; format: cell-based, human; details: NAC-pre-treated microglia; 11 days on stiffness (2, 8, 25 kPa)
Protocol: ROS Quantification and Imaging: 5-(and6)-Chloromethyl-2′,7′-dichlorodihydro-fluorescein diacetate (CM-H2DCFDA) is a fluorescent indicator activated by the presence of ROS. The intensity of CM-H2DCFDA was measured by calculating the corrected total cell fluorescence (CTCF) from The Open Lab Book Imaging protocols. Microglial cells were plated onto 12-well plates at a density of 75,000 cells/mL. Microglial cells were grown to confluency and then 10 μM DCF-DA (Invitrogen) was added to all wells, and cells were incubated for a further 30 minutes before analysis of ROS-activated DCF-DA fluorescence (FL-1/525 nm).
(§1) NAC administration in microglial cells: NAC was purchased (Sigma-Aldrich, St. Louis, MO, USA) and was used in treatment after seeding microglial cells for 3 hours with a 2×PBS wash, then replaced with microglia media every 72 hours. Concentrations of 0.25 and 2.5 mM were used 36. Microglia were grown for 11 days and then assessed using qRT-PCR, counting, and luminescent assays.

HMC3 microglia [3] = assay: qRT-PCR gene expression in microglia with and without NAC pretreatment; format: cell-based, human
Protocol: NAC administration in microglial cells: NAC was purchased (Sigma-Aldrich, St. Louis, MO, USA) and was used in treatment after seeding microglial cells for 3 hours with a 2×PBS wash, then replaced with microglia media every 72 hours. Concentrations of 0.25 and 2.5 mM were used 36. Microglia were grown for 11 days and then assessed using qRT-PCR, counting, and luminescent assays. Gene Expression by Quantitative RT-PCR (qRT-PCR): Total RNA expression was extracted from microglial cells using TRIzol reagent (Invitrogen, CA, USA) and RNA samples were quantified by Take3 Micro-Volume Plate reader (BioTek, VT, USA) by spectrophotometry at 260/280 nm. Purity was assessed by an absence of 320 nm. RNA samples were reverse transcribed using the M-MuLV RT reagent Kit (New England BioLabs, MA, USA). Relative mRNA levels were determined by real-time PCR using a SYBR® PowerUp master mix and a real-time PCR detection system (Mastercycler Realplex ep gradient, Eppendorf, Hamburg, Germany). Data were expressed in Ct values normalized to 18S and […] between control (2 kPa) and treated groups (8, 15, 25 kPa) was determined using the 2-ΔΔCt method. The telomerase-associated genes were probed using the TaqManTM Array Human Telomere Extension by Telomerase (Applied Biosystems #4414187) with multiple plates. Briefly, samples were loaded with SYBR® PowerUp master mix and a real-time PCR detection system (Mastercycler Realplex ep gradient, Eppendorf, Hamburg, Germany). Data were expressed in Ct values normalized to endogenous controls provided with the array and […] and older change between groups was determined using the 2-ΔΔCt method.

caspase-1 = biological target: T1, caspase-1 (Homo sapiens, UniProt P29466); assay: Intracellular caspase-1 activity, bioluminescent assay of microglia; format: cell-based; details: NAC pretreatment
T1 construct: endogenous in cells; host or cells: microglial cells (HMC3 inferred)
T1 sequence (P29466 120-297 limits assumed): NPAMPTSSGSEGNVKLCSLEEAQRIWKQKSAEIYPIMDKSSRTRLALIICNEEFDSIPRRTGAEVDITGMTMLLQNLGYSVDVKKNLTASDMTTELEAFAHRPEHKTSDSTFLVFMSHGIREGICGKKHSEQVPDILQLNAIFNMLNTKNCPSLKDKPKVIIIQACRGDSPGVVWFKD
T1 sequence (P29466 317-404 limits assumed): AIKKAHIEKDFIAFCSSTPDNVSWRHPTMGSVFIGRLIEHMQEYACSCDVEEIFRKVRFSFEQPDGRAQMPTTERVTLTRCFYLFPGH
Protocol: (§2) Caspase-1 and Non-canonical Inflammasome Activity Assays: Detection of caspase-1 and non-canonical caspases using a luciferase assay was performed using Caspase-Glo™ Inflammasome Assay (Cat #G9951; Promega, Madison WI, USA) according to the manufacturer's instructions. Briefly, microglial cells were grown in 12-well plates on differing stiffness for 11 days and then plated with a selective caspase-1 substate, Z-WEHD, for catalytically active caspase-1 with or without a caspase-1 specific inhibitor, Ac-YVAD-CHO, to confirm specific activity in parallel samples. The Ac-YVAD-CHO has minimal effect on other cross-reacting caspases 3, 5, and 6, thereby, representing non-canonical inflammatory caspase activity. Total luminescence was measured using a Synergy™ 2 multi-mode microplate reader (BioTek, VT, USA).
as §1

caspases 3, 5, and 6 = assay: Non-canonical caspase activity (with Ac-YVAD-CHO) in microglia; format: cell-based, human; details: NAC pre-treatment
Protocol: as §2, with “USA). NAC administration in microglial cells: NAC was purchased (Sigma-Aldrich, St. Louis, MO, USA) and was used in treatment after seeding microglial cells for 3 hours with a 2×PBS wash, then replaced with microglia media every 72 hours. Concentrations of 0.25 and 2.5 mM were used 36. Microglia were grown for 11 days and then assessed using qRT-PCR, counting, and luminescent assays.” for “USA).”

HMC3 microglia [4] = assay: Microglial proliferation and growth on stiffness after NAC pretreatment; format: cell-based, human
Protocol: Cell Count and Growth Analysis: Microglia were seeded in triplicate (7.5×10^5 cells/well) in a 12-well plate and the growth of cells was counted every other day, after which the stiffer matrices reached 100% confluency. At 48 h intervals, cells were trypsinized and counted using trypan blue exclusion tests. The doubling time of each stiffness was calculated with the following formula: […], where C_start is the number of cells at the beginning (day 0), C_end is the number of cells after a period of time t and T is the doubling time. NAC administration in microglial cells: NAC was purchased (Sigma-Aldrich, St. Louis, MO, USA) and was used in treatment after seeding microglial cells for 3 hours with a 2×PBS wash, then replaced with microglia media every 72 hours. Concentrations of 0.25 and 2.5 mM were used 36. Microglia were grown for 11 days and then assessed using qRT-PCR, counting, and luminescent assays.

[5] = tested on: Nrf2-related genes in HTR8 cells; details: sulforaphane treatment
Protocol: Sulforaphane (SFN) is a naturally occurring compound present in cruciferous vegetables like broccoli, watercress, Brussels sprouts, cabbage, and cauliflower. […] As a potent Nrf2 activator, SFN affects the expression of approximately 200 genes, including those involved in antioxidant and anti-inflammatory processes. To explore the impact of sulforaphane treatment on the expression levels of Nrf2-related genes, HTR8 cells were cultured on 8 kPa, 25 kPa, and 55 kPa BEASTS surfaces and the gene expression was analyzed by RT-PCR.
Gene Expression analysis of the HTR8 cells: Cells were cultured on BEASTS substrates of different stiffness levels (8 kPa, 25 kPa, and 55 kPa) for four days. After the culture, the total RNA was isolated from the HTR8 cells using Trizol following the manufacturer's instructions. RNA was extracted from the aqueous phase of the cell lysates by adding chloroform, followed by
RNA precipitation using isopropyl alcohol and rinsed with 75% ethanol. The RNA pellet was quantified and quality-checked using a spectrophotometer and then reverse-transcribed using the iScript™ cDNA synthesis kit. Subsequently, the relative expression levels of the target genes were analyzed using quantitative real-time PCR with SYBR Green Master Mix, and GAPDH was used as the housekeeping gene. The […] was employed for data analysis.

[6] = HTR8 cells, all three stiffness levels (8, 25, 55 kPa)

caspase-1 activity (caspase-1; 2 and 8 kPa) | caspase-1 activity (caspase-1; 25 kPa) | activity of non-canonical caspases (caspases 3, 5, and 6; 2 and 8 kPa) | activity of non-canonical caspases (caspases 3, 5, and 6; elevated activity at 25 kPa) | Compound | microglial morphology (HMC3 microglia [1]) | ROS production (HMC3 microglia [2]) | transcripts of NAC-treated versus untreated microglia (HMC3 microglia [3]; 0.25 mM NAC pretreatment, RT-qPCR, 2, 8, 25 kPa) | inflammatory phenotype of microglia (HMC3 microglia [3]; NAC pretreatment, HMC3 cell line on stiffness) | PTGS2 expression (HMC3 microglia [3]; NAC pretreatment, qRT-PCR) | YAP1 expression (HMC3 microglia [3]; NAC pretreatment, qRT-PCR) | M1 inflammatory profile (printed MI profile) (HMC3 microglia [3]; NAC-treated microglia) | PPARG (M2 marker) expression (HMC3 microglia [3]; NAC-treated microglia) | CX3CR1 (steady-state marker) expression (HMC3 microglia [3]; NAC-treated microglia, 25 kPa) | stiffness-induced microglial proliferation / growth (HMC3 microglia [4]) | expression levels of Nrf2-related genes ([5]; HTR8 cells on 8 kPa, 25 kPa, and 55 kPa BEASTS surfaces, RT-PCR) | GCLM gene expression ([5]; HTR8 cells, 8 kPa and 55 kPa) | HMOX1 gene expression ([5]; HTR8 cells, 55 kPa) | GSR gene expression [5, 6] | NQO1 gene expression [5, 6]
reduced | increased | reduced | attenuated | CC(=O)N[C@@H](CS)C(=O)O [NAC, N-Acetyl-l-Cysteine] | ramified | mitigates; also recorded: significantly reduced; also recorded: ameliorates | attenuation | ameliorates | decrease | decrease | attenuated | increased | decreased substantially | mitigates; also recorded: slows | – | – | – | – | –
– | – | – | – | C[S+]([O-])CCCCN=C=S (stereo not shown) [sulforaphane, Sulforaphane] | – | – | – | – | – | – | – | – | – | – | increase | markedly upregulated | markedly upregulated | significantly upregulated | significantly upregulated
